Structures are written as SMILES. Non-standard residues stand in square brackets, D forms with d. Residues, ends and D or L forms follow the SMILES beside them. d1Nal = N[C@H](Cc1cccc2ccccc12)C(=O)O; dNle = CCCC[C@@H](N)C(=O)O

The values below come from paper PMC6470533, “Structure–Activity Study, Characterization, and Mechanism of Action of an Antimicrobial Peptoid D2 and Its D- and L-Peptide Analogues” (Molecules, 2019).

This assay deals with membrane proton motive force of E104 cells. Put plainly: DiSC3(5) fluorescence, membrane depolarization. Type of assay: cell-based, Staphylococcus pseudintermedius. As to conditions: 0.5× MIC, n = 2. The text has this:
In this study, the DiSC3(5) probe was used to assess the effect of D2 and its structural analogues D2L, D2D, and D2R on cytoplasmic membrane depolarization. DiSC3(5) is a cationic carbocyanine dye, which accumulates on negatively charged membrane, translocates into lipid membrane with a distribution dependent on plasma and mitochondrial membrane potential. Altered emission profile of DiSC3(5) measured via fluorescence spectroscopy indicates membrane depolarization caused by proton motive force dissipation, ATP production and/or pore formation. The increment of DiSC3(5) fluorescence of labeled cells resulting from its leakage upon addition of antimicrobial agents is usually measured over time. The protonophore carbonyl cyanide metachlorophenyl hydrazone (CCCP) is used as positive control, which rapidly dissipates PMF increasing proton permeability, alters both membrane proton gradient and transmembrane electric potential and decreases cellular ATP content. Based on the MIC and growth analysis results, sub-lethal concentrations of D2 and selected analogues were chosen to perform DiSC3(5) fluorescence and macromolecule biosynthesis studies.
Freshly grown E104 cells with OD 0.2 at 600 nm were labeled with 1 µM 3,3-dipropylthiadicarbocyanine iodide [DiSC3(5)] (Sigma-Aldrich, Søborg, Denmark) in MHB. The fluorescence spectra of fluorophore-labeled cells were plotted using the LS-50B luminescence spectrometer (PerkinElmer, Waltham, MA, USA) at excitation/emission wavelengths 546 nm/573 nm using time drive application of FLWINLAB software. After reading initial stable emission spectra of DiSC3(5), labeled cells were exposed with D2 or analogues or nisin or protonophore CCCP by directly injecting the concentrated solution of agent to the cuvette, and the change of fluorescence over time was recorded until emission spectra reached to stability. The increment of DiSC3(5) fluorescence upon addition of antimicrobials or CCCP (FUafter-exposure – FUbefore-exposure) was calculated and plotted in addition to raw fluorescence spectra. Experiment was performed twice and average fluorescence change was plotted with standard deviation.

Consider `CCCC[C@@H](NC(=O)[C@@H](CCCCN)NC(=O)[C@@H](Cc1cccc2ccccc12)NC(=O)[C@@H](CCCCN)NC(=O)[C@@H](Cc1ccccc1)NC(=O)[C@@H](Cc1cccc2ccccc12)NC(=O)[C@@H](CCCCN)NC(=O)[C@H](N)CCCCN)C(N)=O` [D2D] (H-[dK][dK][d1Nal][dF][dK][d1Nal][dK][dNle]-NH2), for which the “effect on PMF (membrane depolarization, DiSC3(5) fluorescence)” value is recorded as “lowest activity on PMF”.
